Experimental data: patent US20240254129A1, “HETEROCYCLIC COMPOUNDS AND USES THEREOF” (Kumquat Biosciences Inc., priority 2021, published 2024)

Experiments:
[1] = target: GST-tagged K-Ras mutant / His-tagged hSOS1 (Homo sapiens, UniProt P01116); assay: HTRF assay, K-Ras mutant / SOS1 interaction; assay type: binding; conditions: compound nos. 102-196, general methodology of example 5; read-out: IC50 against mutant Kras
Text: (§1) This assay can be also used to assess a selective inhibition of a mutant Ras protein relative to a wildtype, or relative to a different mutant Ras protein. For example, the equilibrium interaction of wildtype Kras or K-Ras mutant (e.g., wildtype or a mutant thereof including those mentioned in Example 6) with SOS1 (e.g., hSOS1) can be assessed as a proxy or an indication for a subject compound's ability to bind and inhibit Ras protein. HTRF assay detects from (i) a fluorescence resonance energy transfer (FRET) donor (e.g., antiGST-Europium) that is bound to GST-tagged K-Ras mutant to (ii) a FRET acceptor (e.g., anti-6His-XL665) bound to a His-tagged hSOS1.
(§2) The assay buffer can contain ˜5 mM HEPES pH 7.4, ˜150 mM NaCl, ˜ 1 mM DTT, 0.05% BSA and 0.0025% (v/v) Igepal. A Ras working solution is prepared in an assay buffer containing typically a suitable amount of the protein construct (e.g., GST-tagged K-Ras mutant) and the FRET donor (e.g., antiGST-Eu(K) from Cisbio, France). A SOS1 working solution is prepared in an assay buffer containing suitable amount of the protein construct (e.g., His-hSOS1) and the FRET acceptor (e.g., anti-6His-XL665 from Cisbio, France). A suitable amount of the protein construct will depend on the range of activity or range of IC50 values being detected or under investigation. For detecting IC50 within a range of 500 nM, the protein constructs of the same range of molarity can be utilized.
(§3) A fixed volume of DMSO with or without test compound is transferred into a 384-well plate. Ras working solution is added to all wells of the test plate. SOS1 working solution is added to all wells except for those that are subsequently filled the inhibitor control solution. Upon incubation for about 10 minutes or longer, the fluorescence is measured with a M1000Pro plate reader (Tecan) using HTRF detection (excitation 337 nm, emission 1: 620 nm, emission 2: 665 nm). Compounds are tested in duplicates at different concentrations (for example, 10 μM, 2.5 μM, 0.63 μM, 0.16 μM, 0.04 µM, 0.01 μM test compound). The ratiometric data (i.e., emission 2 divided by emission 1) is used to calculate IC50 values against Ras using GraphPad Prism (GraphPad software). Following this general procedure, samples were tested with or without a subject compound disclosed herein including compounds exemplified in Table 1 to assess their abilities to inhibit K-Ras signaling or their respective IC50 values against a given Ras protein (e.g., a given mutant K-Ras) of interest.

[2] = target: T1, wildtype Kras / hSOS1 (Homo sapiens, UniProt P01116); assay: HTRF assay, wildtype Kras / SOS1 interaction; assay type: binding; conditions: compound nos. 102-196, general methodology of example 5; read-out: IC50 against wildtype Kras
T1 construct: made in house; host or cells: E. coli BL21 (DE3)
Text: as §1, §2, §3

T1 sequence (P01116 1-188 isoform P01116-2): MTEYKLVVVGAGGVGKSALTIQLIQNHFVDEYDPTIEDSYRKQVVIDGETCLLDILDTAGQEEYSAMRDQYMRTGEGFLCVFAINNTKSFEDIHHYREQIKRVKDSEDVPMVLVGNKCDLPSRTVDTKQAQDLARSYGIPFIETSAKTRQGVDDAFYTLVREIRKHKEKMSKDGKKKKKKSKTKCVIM
Chain of GST-tagged K-Ras mutant / His-tagged hSOS1 (P01116 whole entry G12D, form open): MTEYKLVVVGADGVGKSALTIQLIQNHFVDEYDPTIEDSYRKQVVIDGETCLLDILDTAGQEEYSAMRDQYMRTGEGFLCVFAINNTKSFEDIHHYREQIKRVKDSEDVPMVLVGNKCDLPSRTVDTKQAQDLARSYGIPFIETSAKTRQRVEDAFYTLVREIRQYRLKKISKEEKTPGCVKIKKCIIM

Structure (SMILES): CN1CCC[C@H]1COc1nc(N2CCNCC(C)(C)C2)c2cc(Cl)c(-c3cccc4sc(N)nc34)c(F)c2n1 [Compound 118, 4-(6-chloro-4-(6,6-dimethyl-1,4-diazepan-1-yl)-8-fluoro-2-(((S)-1-methylpyrrolidin-2-yl)methoxy)quinazolin-7-yl)benzo[d]thiazol-2-amine]
- IC50 [1]: > 500 nM
- IC50 [2]: > 500 nM

Structure (SMILES): CN1CCC[C@H]1COc1nc(N2CCCC(F)(F)CC2)c2cc(Cl)c(-c3cccc4sc(N)nc34)c(F)c2n1 [Compound 119, 4-(6-chloro-4-(4,4-difluoro-azepan-1-yl)-8-fluoro-2-(((S)-1-methylpyrrolidin-2-yl)methoxy)quinazolin-7-yl)-benzo[d]thiazol-2-amine]
- IC50 [1]: > 500 nM
- IC50 [2]: < 500 nM

Structure (SMILES): Nc1nc2c(-c3c(Cl)cc4c(N5CCNCC(F)(F)C5)nc(OCC56CCCN5C[C@H](F)C6)nc4c3F)cccc2s1 (stereo partly drawn) [Compound 120, 4-(6-chloro-4-(6,6-difluoro-1,4-diazepan-1-yl)-8-fluoro-2-(((2R)-2-fluorotetrahydro-1H-pyrrolizin-7a(5H)-yl)-methoxy)quinazolin-7-yl)-benzo[d]thiazol-2-amine]
- IC50 [1]: < 500 nM
- IC50 [2]: < 500 nM

Structure (SMILES): CO[C@@H]1C[C@@H](COc2nc(N3CCNCC(F)(F)C3)c3cc(Cl)c(-c4cccc5sc(N)nc45)c(F)c3n2)N(C)C1 [Compound 121, 4-(6-chloro-4-(6,6-difluoro-1,4-diazepan-1-yl)-8-fluoro-2-(((2S,4R)-4-methoxy-1-methylpyrrolidin-2-yl)-methoxy)quinazolin-7-yl)-benzo[d]thiazol-2-amine]
- IC50 [1]: < 500 nM
- IC50 [2]: < 500 nM

Structure (SMILES): CN1CCC[C@H]1COc1nc(N2CCNCC(F)(F)C2)c2cc(Cl)c(-c3cccc4scnc34)c(F)c2n1 [Compound 122, 4-(6-chloro-4-(6,6-difluoro-1,4-diazepan-1-yl)-8-fluoro-2-(((S)-1-methylpyrrolidin-2-yl)methoxy)quinazolin-7-yl)benzo[d]thiazole]
- IC50 [1]: > 500 nM
- IC50 [2]: > 500 nM

Structure (SMILES): CN1CCN(c2nc(OC[C@@H]3CCCN3C)nc3c(F)c(-c4cccc5sc(N)nc45)c(Cl)cc23)CC(F)(F)C1 [Compound 123, 4-(6-chloro-4-(6,6-difluoro-4-methyl-1,4-diazepan-1-yl)-8-fluoro-2-(((S)-1-methyl-pyrrolidin-2-yl)methoxy)-quinazolin-7-yl)benzo[d]-thiazol-2-amine]
- IC50 [1]: > 500 nM
- IC50 [2]: > 500 nM

Structure (SMILES): CN1CCC[C@H]1COc1nc(N2CC3CCNC3C2)c2cc(Cl)c(-c3cccc4sc(N)nc34)c(F)c2n1 (stereo partly drawn) [Compound 124, 4-(6-chloro-8-fluoro-4-(hexahydropyrrolo[3,4-b]-pyrrol-5(1H)-yl)-2-(((S)-1-methylpyrrolidin-2-yl)meth-oxy)quinazolin-7-yl)benzo-[d]thiazol-2-amine]
- IC50 [1]: > 500 nM
- IC50 [2]: > 500 nM

Structure (SMILES): CN1CCC[C@H]1COc1nc(N2CCNCC(F)(F)C2)c2cc(C#N)c(-c3cccc4sc(N)nc34)c(F)c2n1 [Compound 125, 7-(2-aminobenzo[d]thiazol-4-yl)-4-(6,6-difluoro-1,4-diazepan-1-yl)-8-fluoro-2-(((S)-1-methylpyrrolidin-2-yl)methoxy)quinazoline-6-carbonitrile]
- IC50 [1]: > 500 nM
- IC50 [2]: > 500 nM

Structure (SMILES): CO[C@H]1C[C@@H](COc2nc(N3CCNCC(F)(F)C3)c3cc(Cl)c(-c4cccc5sc(N)nc45)c(F)c3n2)N(C)C1 [Compound 126, 4-(6-chloro-4-(6,6-difluoro-1,4-diazepan-1-yl)-8-fluoro-2-(((2S,4S)-4-methoxy-1-methylpyrrolidin-2-yl)-methoxy)quinazolin-7-yl)-benzo[d]thiazol-2-amine]
- IC50 [1]: > 500 nM
- IC50 [2]: < 500 nM

Structure (SMILES): CN1CCC[C@H]1COc1nc(N2CCCNCC(F)(F)C2)c2cc(Cl)c(-c3cccc4sc(N)nc34)c(F)c2n1 [Compound 127, 4-(6-chloro-4-(3,3-difluoro-1,5-diazocan-1-yl)-8-fluoro-2-(((S)-1-methylpyrrolidin-2-yl)methoxy)quinazolin-7-yl)benzo[d]thiazol-2-amine]
- IC50 [1]: < 500 nM
- IC50 [2]: < 500 nM

Structure (SMILES): CN1CCC[C@H]1COc1nc(N2CCNCC3(CC3)C2)c2cc(Cl)c(-c3cccc4sc(N)nc34)c(F)c2n1 [Compound 128, 4-(6-chloro-8-fluoro-2-(((S)-1-methylpyrrolidin-2-yl)-methoxy)-4-(5,8-diazaspiro-[2.6]nonan-5-yl)quinazolin-7-yl)benzo[d]thiazol-2-amine]
- IC50 [1]: > 500 nM
- IC50 [2]: > 500 nM

Structure (SMILES): Nc1nc2c(-c3c(Cl)cc4c(N5CCNCC(F)(F)C5)nc(OCCCN5CCOCC5)nc4c3F)cccc2s1 [Compound 129, 4-(6-chloro-4-(6,6-difluoro-1,4-diazepan-1-yl)-8-fluoro-2-(3-morpholinopropoxy)-quinazolin-7-yl)benzo[d]-thiazol-2-amine]
- IC50 [1]: > 500 nM
- IC50 [2]: < 500 nM

Structure (SMILES): CN1C[C@@H](F)C[C@H]1COc1nc(N2CCNCC(F)(F)C2)c2cc(Cl)c(-c3cccc4sc(N)nc34)c(F)c2n1 [Compound 130, 4-(6-chloro-4-(6,6-difluoro-1,4-diazepan-1-yl)-8-fluoro-2-(((2S,4S)-4-fluoro-1-methylpyrrolidin-2-yl)meth-oxy)quinazolin-7-yl)benzo-[d]thiazol-2-amine]
- IC50 [1]: > 500 nM
- IC50 [2]: < 500 nM

Structure (SMILES): Cn1cnnc1COc1nc(N2CCNCC(F)(F)C2)c2cc(Cl)c(-c3cccc4sc(N)nc34)c(F)c2n1 [Compound 131, 4-(6-chloro-4-(6,6-difluoro-1,4-diazepan-1-yl)-8-fluoro-2-((4-methyl-4H-1,2,4-triazol-3-yl)methoxy)quin-azolin-7-yl)benzo[d]thiazol-2-amine]
- IC50 [1]: > 500 nM
- IC50 [2]: > 500 nM

Structure (SMILES): CN1CCC[C@H]1COc1nc(N2CCCC3(CNC3)C2)c2cc(Cl)c(-c3cccc4sc(N)nc34)c(F)c2n1 [Compound 132, 4-(6-chloro-8-fluoro-2-(((S)-1-methylpyrrolidin-2-yl)-methoxy)-4-(2,6-diazaspiro-[3.5]nonan-6-yl)quinazolin-7-yl)benzo[d]thiazol-2-amine]
- IC50 [1]: > 500 nM
- IC50 [2]: > 500 nM

Structure (SMILES): Nc1nc2c(-c3c(Cl)cc4c(N5CCNCC(F)(F)C5)nc(OC[C@@]56CCCN5C[C@H](F)C6)nc4c3F)ccc(F)c2s1 [Compound 133, 4-(6-chloro-4-(6,6-difluoro-1,4-diazepan-1-yl)-8-fluoro-2-(((2R,7aS)-2-fluorotetrahydro-1H-pyrrolizin-7a(5H)-yl)methoxy)quinazolin-7-yl)-7-fluorobenzo[d]thiazol-2-amine]
- IC50 [1]: < 500 nM
- IC50 [2]: < 500 nM

Structure (SMILES): CN1CCC(COc2nc(N3CCNCC(F)(F)C3)c3cc(Cl)c(-c4cccc5sc(N)nc45)c(F)c3n2)CC1 [Compound 134, 4-(6-chloro-4-(6,6-difluoro-1,4-diazepan-1-yl)-8-fluoro-2-((1-methylpiperidin-4-yl)-methoxy)quinazolin-7-yl)-benzo[d]thiazol-2-amine]
- IC50 [1]: > 500 nM
- IC50 [2]: < 500 nM

Structure (SMILES): CN(C)C1CN(c2nc(N3CCNCC(F)(F)C3)c3cc(Cl)c(-c4cccc5sc(N)nc45)c(F)c3n2)C1 [Compound 135, 4-(6-chloro-4-(6,6-difluoro-1,4-diazepan-1-yl)-2-(3-(dimethylamino)azetidin-1-yl)-8-fluoroquinazolin-7-yl)-benzo[d]thiazol-2-amine]
- IC50 [1]: > 500 nM
- IC50 [2]: > 500 nM

Structure (SMILES): CN1CCC[C@H]1COc1nc(N2CCSCC(F)(F)C2)c2cc(Cl)c(-c3cccc4sc(N)nc34)c(F)c2n1 [Compound 136, 4-(6-chloro-4-(6,6-difluoro-1,4-thiazepan-4-yl)-8-fluoro-2-(((S)-1-methylpyrrolidin-2-yl)methoxy)quinazolin-7-yl)benzo[d]thiazol-2-amine]
- IC50 [1]: < 500 nM
- IC50 [2]: < 500 nM

Structure (SMILES): CN1CCC[C@H]1COc1nc(N2CC3CNC(C3)C2)c2cc(Cl)c(-c3cccc4sc(N)nc34)c(F)c2n1 (stereo partly drawn) [Compound 137, 4-(4-(3,6-diazabicyclo-[3.2.1]octan-3-yl)-6-chloro-8-fluoro-2-(((S)-1-methyl-pyrrolidin-2-yl)methoxy)-quinazolin-7-yl)benzo[d]-thiazol-2-amine]
- IC50 [1]: > 500 nM
- IC50 [2]: > 500 nM
